Experimental data: patent US20130225575A1, “METHODS FOR TREATING NEUROLOGICAL CONDITIONS” (AFRAXIS, INC., priority 2010, published 2013)

Assays:
Format in all cases: biochemical
PAK1 = target: T1, PAK1 (Homo sapiens, UniProt Q13153); test: Z'Lyte fluorescence-based (FRET) kinase assay, PAK1; settings: ATP at Km apparent; 1 hr room temperature
T1 construct: Purified PAK kinase is incubated with ATP
Protocol: (§1) A fluorescence-based assay format is used to determine […] values of test compounds in vitro. Purified PAK kinase is incubated with ATP, and a test compound at various concentrations and a substrate peptide containing two fluorophores. In a second step, the reaction mix is incubated with a site-specific protease that cleaves non-phosphorylated but not phosphorylated substrate peptide, disrupting the FRET signal generated by the two fluorophores in the cleaved peptide (Z'Lyte™ Kinase assay platform; Life Technologies).
(§2) Reagents: 50 mM HEPES, pH 7.5; 0.01% BRIJ-35; 10 mM MgCl2; 1 mM EGTA, 2 uM substrate peptide Ser/Thr20 (proprietary Life Technologies Sequence), PAK enzyme [2.42-30.8 ng for PAK1, 0.29-6 ng for PAK2, 1.5-20 ng for PAK3 and 0.1-0.86 ng for PAK4; actual enzyme amounts depend on lot activity of the enzyme preparation]
(§3) Test compounds are dissolved in DMSO at various concentrations; the final DMSO concentration in the assay reaction is 1%.
(§4) ATP concentration at Km apparent is used in the assay [50 ? M ATP for PAK1 assay, 75 ? M ATP for PAK2 assay, 100 μM ATP for PAK3 assay, 5 μM ATP for PAK4 assay] in a total assay volume of 10 μl. […]
(§5) Plates are analyzed in a standard fluorescence plate reader (Tecan or equivalent) using an excitation wavelength of 400 nm and emission wavelengths of 445 nm and 520 nm. Inhibition of kinase reaction is determined by […]

PAK2 = PAK2 (Homo sapiens, UniProt Q13177); test: Z'Lyte fluorescence-based (FRET) kinase assay, PAK2; settings: ATP at Km apparent; 1 hr room temperature
PAK2, sequence (Q13177 whole entry): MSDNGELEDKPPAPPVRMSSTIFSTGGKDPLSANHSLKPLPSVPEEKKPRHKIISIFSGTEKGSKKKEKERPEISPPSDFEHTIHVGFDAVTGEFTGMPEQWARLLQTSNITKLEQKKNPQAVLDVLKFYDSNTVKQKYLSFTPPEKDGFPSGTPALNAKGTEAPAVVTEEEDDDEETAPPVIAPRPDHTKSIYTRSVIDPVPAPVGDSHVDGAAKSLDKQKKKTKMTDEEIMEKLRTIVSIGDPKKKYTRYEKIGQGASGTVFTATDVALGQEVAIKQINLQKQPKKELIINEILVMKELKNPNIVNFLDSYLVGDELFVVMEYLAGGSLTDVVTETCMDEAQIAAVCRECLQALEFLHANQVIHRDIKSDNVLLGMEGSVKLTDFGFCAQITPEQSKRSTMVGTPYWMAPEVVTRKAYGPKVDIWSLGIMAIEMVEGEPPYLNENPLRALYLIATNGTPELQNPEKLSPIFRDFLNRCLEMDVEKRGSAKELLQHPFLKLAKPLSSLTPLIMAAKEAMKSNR
Protocol: as §1, §2, §3, §4, §5

PAK4 = target: T2, PAK4 (Homo sapiens, UniProt O96013); test: Z'Lyte fluorescence-based (FRET) kinase assay, PAK4; settings: ATP at Km apparent (5 μM ATP); 1 hr room temperature
T2 construct: Purified PAK kinase is incubated with ATP
T2 sequence (O96013 whole entry): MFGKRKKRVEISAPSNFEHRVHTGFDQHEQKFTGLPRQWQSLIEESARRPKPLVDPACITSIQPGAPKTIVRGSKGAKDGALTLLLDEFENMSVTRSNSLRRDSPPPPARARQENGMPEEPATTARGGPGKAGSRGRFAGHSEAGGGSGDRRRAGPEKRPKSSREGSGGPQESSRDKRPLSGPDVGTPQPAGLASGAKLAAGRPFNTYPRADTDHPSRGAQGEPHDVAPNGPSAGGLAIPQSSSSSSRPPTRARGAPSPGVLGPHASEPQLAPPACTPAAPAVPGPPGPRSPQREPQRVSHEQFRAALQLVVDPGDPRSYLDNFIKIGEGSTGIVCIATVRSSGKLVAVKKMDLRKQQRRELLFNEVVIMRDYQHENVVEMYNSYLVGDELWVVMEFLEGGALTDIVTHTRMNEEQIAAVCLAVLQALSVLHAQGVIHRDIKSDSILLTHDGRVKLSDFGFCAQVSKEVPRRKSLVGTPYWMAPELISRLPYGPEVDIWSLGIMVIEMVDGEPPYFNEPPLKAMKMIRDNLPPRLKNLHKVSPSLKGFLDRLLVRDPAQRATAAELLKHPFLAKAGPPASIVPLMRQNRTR
Protocol: as §1, §2, §3, §4, §5

PAK3 = PAK3 (Homo sapiens, UniProt O75914); test: Z'Lyte fluorescence-based (FRET) kinase assay, PAK3; settings: ATP at Km apparent (100 μM ATP); 1 hr room temperature
PAK3, sequence (O75914 whole entry): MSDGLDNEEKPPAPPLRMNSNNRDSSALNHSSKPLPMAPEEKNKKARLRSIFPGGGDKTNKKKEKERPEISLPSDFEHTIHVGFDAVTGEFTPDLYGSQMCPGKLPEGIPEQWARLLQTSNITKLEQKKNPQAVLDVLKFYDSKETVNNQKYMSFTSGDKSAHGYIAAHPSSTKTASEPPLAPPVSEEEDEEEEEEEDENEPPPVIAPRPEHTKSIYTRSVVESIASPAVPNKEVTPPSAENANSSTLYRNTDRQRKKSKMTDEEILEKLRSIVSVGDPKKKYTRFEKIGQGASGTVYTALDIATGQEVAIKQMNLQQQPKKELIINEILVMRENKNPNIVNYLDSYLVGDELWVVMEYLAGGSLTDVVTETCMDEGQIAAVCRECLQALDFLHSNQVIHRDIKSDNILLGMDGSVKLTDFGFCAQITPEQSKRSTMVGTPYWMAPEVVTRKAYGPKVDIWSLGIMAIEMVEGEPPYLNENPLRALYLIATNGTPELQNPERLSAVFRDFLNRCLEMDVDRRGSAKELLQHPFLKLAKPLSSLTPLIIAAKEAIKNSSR
Protocol: as §1, §2, §3, §4, §5

Measured: IC50

T1 sequence (Q13153 whole entry): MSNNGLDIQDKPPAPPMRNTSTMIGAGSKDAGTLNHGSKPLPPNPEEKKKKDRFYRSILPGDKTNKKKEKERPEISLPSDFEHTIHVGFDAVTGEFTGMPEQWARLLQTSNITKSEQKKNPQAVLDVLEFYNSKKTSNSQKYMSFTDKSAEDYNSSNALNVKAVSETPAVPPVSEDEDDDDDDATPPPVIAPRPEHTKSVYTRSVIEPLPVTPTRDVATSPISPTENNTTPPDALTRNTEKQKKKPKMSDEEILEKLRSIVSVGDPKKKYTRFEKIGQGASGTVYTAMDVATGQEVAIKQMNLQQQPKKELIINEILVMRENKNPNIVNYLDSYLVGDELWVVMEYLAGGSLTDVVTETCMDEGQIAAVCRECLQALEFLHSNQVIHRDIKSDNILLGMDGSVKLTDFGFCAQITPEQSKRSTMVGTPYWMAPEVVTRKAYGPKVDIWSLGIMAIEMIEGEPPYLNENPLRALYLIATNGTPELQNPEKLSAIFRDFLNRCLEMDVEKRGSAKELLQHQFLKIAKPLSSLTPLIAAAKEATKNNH

CN1CCN(c2ccc(Nc3ncc4ccc(=O)n(Cc5c(O)cccc5F)c4n3)cc2)CC1 [compound 105]
< 1000 nM: all assays above

CN1CCN(c2ccc(Nc3ncc4ccc(=O)n(Cc5c(O)cccc5Br)c4n3)cc2)CC1 [compound 123]
< 1000 nM: all assays above
